From PubChem BioAssay AID1919003 (Molecular Pharmacology Branch, DTP, NCI, 2023)
Where “and” joins values, the source holds several entries; their conditions need not be identical. Equal values may be shown once.

Test system: 786-0 complex spheroids with HUVEC/MSC, growth % test/control
Experiment: Anticancer human tumor 786-0 cell line growth inhibition [AhR];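 also: compound exposure lasted seven days before the read-out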
Details: for viability, T/C: stronger effect = lower value
Source text: Multicellular complex tumor spheroid response to aryl hydrocarbon receptor antagonists in combination with a variety of drugs and investigational agents in selected tumor cell lines
The current study was undertaken to assess response to aryl hydrocarbon receptor antagonists in combination with standard-of-care drugs and investigational agents in solid tumor complex spheroid models. Complex spheroids include a stromal component modeled by human endothelial cells (HUVEC) and fibroblasts modeled by human mesenchymal stem cells (MSCs). The concentration ranges selected for each drug and investigational agent were based upon clinically achievable concentrations if the clinical Cmax of the agent was known.
Compounds. The drugs and investigational agents: BAY 2416964 (NSC825713), GNF351 (NSC835774), CH-223191 (NSC835775), CPI-455 (NSC825282), aza-TdCyd (NSC777586), decitabine (NSC127716), belinostat (NSC758774), entinostat (NSC756642), pevonedistat (NSC761192), tazemetostat (NSC777109), talazoparib (NSC765396), olaparib (NSC753686), selinexor (NSC780203), nedisertib (M3814, NSC802822), bortezomib (NSC756655), venetoclax (NSC766270), doxorubicin (NSC123127), elimusertib (BAY189344, NSC800525), ceralasertib (AZD6738, NSC777638), TAK-243 (NSC785004), alisertib (NSC759677), etoposide (NSC141540), topotecan (NSC609699), eribulin (NSC707389), gemcitabine (NSC613327), carboplatin (NSC241240), cisplatin (NSC119875), and SN-38 (NSC673596) were obtained from the National Cancer Institute (NCI) Developmental Therapeutics Program Chemical Repository (32). The FDA-approved anticancer drug set is available from the Developmental Therapeutics Program at https://dtp.cancer.gov/organization/dscb/obtaining/available plates.htm. […] The stock solutions were prepared in dimethyl sulfoxide (DMSO, Sigma-Aldrich, St. Louis, MO, cat. D2650), except for the platinum compounds which were prepared in saline (Quality Biological, Gaithersburg, MD, cat. 114-055-101), at 800-fold the tested concentration and stored at -70 degrees C prior to their use. All drugs and investigational agents were tested over a range starting from a high concentration at or near the clinical Cmax and decreasing in half-log increments. If the clinical Cmax for an agent had not been determined, the highest concentration tested was 10 microM (Table 1).
Cell Culture. All cells were maintained in an incubator at 37 degrees C and 5% CO2 with 95% humidity. The PDC lines were cultured according to standard operating procedures established by the NCI PDMR (https://pdmr.cancer.gov). Briefly, all PDCs were thawed and cultured in Matrigel-coated flasks prepared with a working solution of 1X Ham's F-12 nutrient mix, without supplementation (Invitrogen, Waltham, MA, cat. 11765054), 100 U/mL penicillin-streptomycin (Invitrogen, cat. 15140122), and 2.5% Matrigel (Corning Inc., Corning, NY, cat. 354248) for the first three passages. All PDCs were cultured in complete DMEM/F-12 media containing advanced DMEM/F-12 (Invitrogen, cat. 12634028), 4.9% defined fetal bovine serum, heat inactivated (HyClone Laboratories Inc., Logan, UT, cat. SH30070.03HI), 389 ng/mL hydrocortisone (Sigma-Aldrich, cat. H4001), 9.7 ng/mL human EGF recombinant protein (Invitrogen, cat. PHG0313), 23.4 microg/mL adenine (Sigma-Aldrich, cat. A2786), 97.3 U/mL penicillin-streptomycin (Invitrogen, cat. 15140122), 1.9 mM L-glutamine (Invitrogen, cat. 25030081), and 9.7 microM Y-27632 dihydrochloride (Tocris Bioscience, Bristol, United Kingdom, cat. 1254). The PDCs were cultured in complete DMEM/F12 media without 10 microM Y-27632 dihydrochloride for at least two passages prior to the screen. The established cell lines NCI-H1341 and […] were cultured in DMEM/F-12, HEPES (Invitrogen, cat. 11330032), 5% defined fetal bovine serum (HyClone Laboratories Inc., cat. SH30070.03), ITS premix universal culture supplement [insulin (5 microg/mL), transferrin (5 microg/mL), and selenious acid (5 ng/mL)] […]

Row | Compound | viability, T/C (compound 0.0316 µM) | viability, T/C (compound 0.1 µM) | viability, T/C (compound 0.316 µM) | viability, T/C (compound 1 µM) | viability, T/C (compound 3.16 µM) | viability, T/C (compound 10 µM) | IC50 (curve of compound) | further results
1 | COc1cccc2c1C(=O)c1c(O)c3c(c(O)c1C2=O)CC(O)(C(=O)CO)CC3OC1CC(N)C(O)C(C)O1 (configuration not stated) | 58.8% and 70% and 62% | 51.9% and 65.6% and 44.9% | 23.9% and 30.9% and 18.1% | 7% and 10.7% and 3.15% | 0.81% and 3.57% and 0.53% | 0.36% and 3.07% and 0.69% | 104 nM and 166 nM and 71.8 nM | –
2 | Cc1ccccc1N=Nc1ccc(NC(=O)c2ccnn2C)c(C)c1 | – | 99.5% [middle of 20 runs] | 99.1% [middle of 20 runs] | 97.1% [middle of 20 runs] | – | – | – | IC50 (compound alone, run of 08/22/2022): > 10000 nM
3 | Cc1cncc(-c2nc(NCCc3c[nH]c4ccccc34)c3ncn(C(C)C)c3n2)c1 | – | 114% [middle of 20 runs] | – | – | – | 11.6% [middle of 20 runs] | – | IC50 (compound alone, run of 08/16/2022): 5.18 µM [middle of 23 runs]
4 | Cn1ncnc1C1c2n[nH]c(=O)c3cc(F)cc(c23)NC1c1ccc(F)cc1 (configuration not stated) | 99.5% and 112% and 97.7% | 106% and 108% and 102% | – | – | – | – | > 100 nM | viability, T/C (compound 0.000316 µM): 108% (2×) and 92.5%; viability, T/C (compound 0.001 µM): 104% and 108% and 105%; viability, T/C (compound 0.00316 µM): 110% and 104% and 100%; viability, T/C (compound 0.01 µM): 109% and 104% and 101%
5 | NS(=O)(=O)OCC1CC(n2ccc3c(NC4CCc5ccccc54)ncnc32)CC1O (configuration not stated) | 86.6% and 84.8% and 82.7% | 82.9% and 78.3% and 70.6% | 65.9% and 65% and 60.3% | 28.2% and 41.9% and 20.8% | 5.17% and 8.09% and 3.13% | 3.31% and 4.15% and 1.12% | 512 nM and 630 nM and 411 nM | –
6 | Nc1ccccc1NC(=O)c1ccc(CNC(=O)OCc2cccnc2)cc1 | 105% and 107% and 108% | 102% and 106% and 113% | 106% and 102% and 111% | 113% and 108% and 114% | 73.9% and 96.8% and 86.7% | 25.2% and 36.6% and 21.4% | 5560 nM and 7780 nM and 6040 nM | –
7 | Nc1ccn(C2OC(CO)C(O)C2(F)F)c(=O)n1 (configuration not stated) | 5.98% and 8.17% and 4.44% | 6.03% and 7.13% and 4.49% | 4.27% and 6.35% and 5.28% | 4.72% and 8.77% and 4.12% | 4.82% and 7.86% and 5.09% | 5.31% and 7.65% and 6.29% | < 31.6 nM | –
8 | Nc1ncn(C2CC(O)C(CO)O2)c(=O)n1 (configuration not stated) | 98.7% and 88.8% and 106% | 96.5% and 86% and 94.8% | 81.5% and 69.4% and 93.1% | 85.2% and 54.8% and 84.6% | – | – | > 1000 nM | viability, T/C (compound 0.00316 µM): 99.4% and 101% and 104%; viability, T/C (compound 0.01 µM): 102% and 81.5% and 104%
9 | Nc1ncn(C2CC(O)C(CO)S2)c(=O)n1 (configuration not stated) | – | – | – | – | – | – | > 300 nM | viability, T/C (compound 0.000949 µM): 109% and 99.9% and 112%; viability, T/C (compound 0.003 µM): 103% and 94.9% and 105%; viability, T/C (compound 0.00949 µM): 99.4% and 94.5% and 98.6%; viability, T/C (compound 0.03 µM): 102% and 107% and 100%; viability, T/C (compound 0.0949 µM): 73.2% and 96.8% and 89%; viability, T/C (compound 0.3 µM): 63.7% and 75.5% and 63.9%
10 | O=C(C=Cc1cccc(S(=O)(=O)Nc2ccccc2)c1)NO | 104% and 102% and 97.4% | 101% and 99.7% and 102% | 101% and 103% and 102% | 101% and 102% and 112% | 75.2% and 93.4% and 85.6% | 16.8% and 22.8% and 12.4% | 5200 nM and 6410 nM and 5530 nM | –
11 | O=C(C=Cn1cnc(-c2cc(C(F)(F)F)cc(C(F)(F)F)c2)n1)NNc1cnccn1 | – | – | – | – | – | – | 700 nM and 745 nM and 356 nM | viability, T/C (compound 0.00949 µM): 106% (2×) and 101%; viability, T/C (compound 0.03 µM): 110% and 108% and 112%; viability, T/C (compound 0.0949 µM): 109% and 107% and 105%; viability, T/C (compound 0.3 µM): 66.8% and 69.5% and 52.4%; viability, T/C (compound 0.949 µM): 47.5% and 48.1% and 38.7%; viability, T/C (compound 3 µM): 20.5% and 24.1% and 16.9%
12 | O=C(c1cc(Cc2n[nH]c(=O)c3ccccc23)ccc1F)N1CCN(C(=O)C2CC2)CC1 | 111% and 97.5% and 96.3% | 104% and 99.7% and 103% | 112% and 103% and 102% | 108% and 109% and 104% | 109% and 107% and 104% | 107% and 98% and 91.6% | > 10000 nM | –
